Assay results: BindingDB's records for patent US20250313563 (The Broad Institute, 2025)
Several values for one entry are separate records, joined by “and”; a condition that tells them apart may be missing. Identical values can stand only once.

How the values were obtained:
[1] = target: Glycogen synthase kinase-3 alpha (Homo sapiens, UniProt P49840); experiment: TR-FRET Assay
Method: (§1) The assay was performed in a white, 384 well, low volume, flat bottom plate (Grenier). […] The kinase activity was quenched with 2 μL of 250 mM EDTA. A 10 μL volume of 40 nM Strepavidin-d2, 2 nM Tb2+-pSer641 antibody in TR-FRET Detection Buffer (Invitrogen) was then added.

[2] = target: Glycogen synthase kinase-3 beta (Homo sapiens, UniProt P49841); experiment: TR-FRET Assay
Sequence of Glycogen synthase kinase-3 beta (P49841 whole entry): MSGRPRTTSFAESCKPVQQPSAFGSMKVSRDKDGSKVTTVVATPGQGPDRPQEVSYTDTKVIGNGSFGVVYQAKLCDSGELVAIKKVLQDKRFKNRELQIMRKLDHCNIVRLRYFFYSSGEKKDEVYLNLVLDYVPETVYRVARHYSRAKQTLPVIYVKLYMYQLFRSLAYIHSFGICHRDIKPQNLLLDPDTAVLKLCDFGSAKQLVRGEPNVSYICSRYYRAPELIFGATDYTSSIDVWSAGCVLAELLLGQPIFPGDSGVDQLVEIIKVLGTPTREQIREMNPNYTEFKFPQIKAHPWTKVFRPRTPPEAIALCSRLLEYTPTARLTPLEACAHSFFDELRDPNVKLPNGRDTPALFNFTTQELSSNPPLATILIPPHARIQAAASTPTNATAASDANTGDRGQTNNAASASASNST
Method: as §1

Sequence of Glycogen synthase kinase-3 alpha (P49840 whole entry): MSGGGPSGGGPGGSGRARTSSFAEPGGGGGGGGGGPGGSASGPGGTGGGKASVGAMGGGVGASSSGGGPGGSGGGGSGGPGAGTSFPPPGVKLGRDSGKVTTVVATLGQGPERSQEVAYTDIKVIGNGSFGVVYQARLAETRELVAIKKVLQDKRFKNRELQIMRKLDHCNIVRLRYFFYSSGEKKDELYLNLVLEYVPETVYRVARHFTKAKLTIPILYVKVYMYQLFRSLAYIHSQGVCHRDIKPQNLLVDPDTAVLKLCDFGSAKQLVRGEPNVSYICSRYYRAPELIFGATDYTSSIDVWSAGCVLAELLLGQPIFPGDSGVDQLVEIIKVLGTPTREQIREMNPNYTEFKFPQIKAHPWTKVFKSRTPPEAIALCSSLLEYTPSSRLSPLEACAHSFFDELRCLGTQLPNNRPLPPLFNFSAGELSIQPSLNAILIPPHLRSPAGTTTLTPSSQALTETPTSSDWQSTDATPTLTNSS

| SMILES | IC50 [1] | IC50 [2] |
| --- | --- | --- |
| COCc1cccc(S(=O)(=O)N2CCC3(CC2)C2=C(N=NC2)NC2=C3C(=O)CC(C)(C)C2)c1 [US20250313563, Compound 947605] | < 100 nM | < 100 nM |
| CC1(C)CC2=C(C(=O)N1)C1(CCN(S(C)(=O)=O)CC1)C1=C(N=NC1)N2 [US20250313563, Compound 943959] | < 100 nM | 100 to 1000 nM |
| CC[C@@]1(c2cccc([C@@H]3CCOC(C)(C)C3)c2)C2=CN=NC2NC2=C1C(=O)CC(C)(C)C2 (stereo not given in full) [US20250313563, Compound 912091] | > 5000 nM | > 5000 nM |
| CCC1(c2cccc(C3=CN=NC3)c2)C2=C(CC(C)(C)CC2=O)NC2N=NC(C)=C21 (stereo not given) [US20250313563, Compound 883994] | < 100 nM | < 100 nM |
| CCC1(c2cccc(N(C)C(=O)Cc3ccccc3)c2)C2=CN=NC2NC2=C1C(=O)CC(C)(C)C2 (stereo not given) [US20250313563, Compound 912071] | < 100 nM | < 100 nM |
| CC[C@@]1(c2ccccc2)C2=CN=NC2NC2=C1C(=O)C[C@@](C)(C(F)(F)F)C2 (stereo not given in full) [US20250313563, Compound 819569] | 100 to 1000 nM | 1000 to 5000 nM |
| CC[C@@]1(c2ccc(OC(C)C)cc2)C2=C(CC(C)(C)CC2=O)NC2N=NC(C(F)(F)F)=C21 (stereo not given in full) [US20250313563, Compound 947873] | 100 to 1000 nM | 100 to 1000 nM |
| CCC1(c2ccccc2)C2=C(N=NC2)NC(C)=C1C(C)=O (stereo not given) [US20250313563, Compound 806940] | > 5000 nM | > 5000 nM |
| CC[C@]1(c2cccc(-c3cc(C)nn3C)c2)C2=CN=NC2NC2=C1C(=O)CC(C)(C)[C@@H]2F (stereo not given in full) [US20250313563, Compound 947655] | < 100 nM | 100 to 1000 nM |
| CC[C@@]1(c2cc(-c3ccnc(C)c3)ccc2F)C2=CN=NC2NC2=C1C(=O)CC(C)(C)C2 (stereo not given in full) [US20250313563, Compound 909213] | > 5000 nM | > 5000 nM |
| CC1N=NC2=C1C(C)(c1cccc(C(F)(F)F)c1)C1=C(CC(C)(C)CC1=O)N2 (stereo not given) [US20250313563, Compound 811556] | < 100 nM | < 100 nM |
| CCc1ncc(S(=O)(=O)N2CCC3(CC2)C2=CN=NC2NC2=C3C(=O)NC(C)(C)C2)s1 (stereo not given) [US20250313563, Compound 947837] | < 100 nM | < 100 nM |
| CC1(C)CC(=O)C2=C(C1)NC1=C(CN=N1)C21CCN(S(=O)(=O)c2cnn3c2OCCC3)CC1 [US20250313563, Compound 947483] | < 100 nM | < 100 nM |
| CC[C@]1(c2cccc(-c3c(F)cncc3F)c2)C2=CN=NC2NC2=C1C(=O)NC(C)(C)C2 (stereo not given in full) [US20250313563, Compound 948514] | 1000 to 5000 nM |  |
| CC[C@@]1(c2cccc(-c3ccnc(C)c3)c2)C2=CN=NC2NC2=C1C(=O)CC(C)(C)C2 (stereo not given in full) [US20250313563, Compound 865170] | 1000 to 5000 nM |  |
| CC[C@@]1(c2cccc(Cl)c2)C2=C(CC(C)(C)CC2=O)NC2N=NC(C(F)(F)F)=C21 (stereo not given in full) [US20250313563, Compound 801309] | 1000 to 5000 nM |  |
| CC(=O)N1CC2(C1)C1=C(CC(C)(C)CC1=O)NC1N=NC(CC(C)(C)C)=C12 (stereo not given) [US20250313563, Compound 90991] | 3010 nM and 17500 nM |  |
| CCc1cccc(N(C)c2cccc([C@]3(CC)C4=CN=NC4NC4=C3C(=O)CC(C)(C)C4)c2)n1 (stereo not given in full) [US20250313563, Compound 945726] | 1000 to 5000 nM |  |
| Cc1ccc(S(C)(=O)=O)cc1[C@]1(C)C2=C(CC(C)(C)CC2=O)NC2=C1C(CC(C)(C)C)N=N2 (stereo not given in full) [US20250313563, Compound 126397] | 1000 to 5000 nM |  |

| SMILES | IC50 [1] | IC50 [2] |
| --- | --- | --- |
| CC[C@]1(c2cccc(-c3ccnc(C)c3)c2)C2=CN=NC2NC2=C1C(=O)CC(C)(C)[C@@H]2F (stereo not given in full) [US20250313563, Compound 946101] | 1000 to 5000 nM |  |
| CC[C@]1(c2cccc(-c3cnn4c3CCCC4)c2)C2=CN=NC2NC2=C1C(=O)NC(C)(C)C2 (stereo not given in full) [US20250313563, Compound 947415] | 1000 to 5000 nM |  |
| CC[C@@]1(c2cccc(-c3ccnc(C)c3)c2)C2=CN=NC2NC2=C1C(=O)CC(C)(C)[C@@H]2F (stereo not given in full) [US20250313563, Compound 946102] | 1000 to 5000 nM |  |
| CC[C@@]1(c2cccc(S(=O)(=O)CC3CC3)c2)C2=CN=NC2NC2=C1C(=O)CC(C)(C)C2 (stereo not given in full) [US20250313563, Compound 917151] | 1000 to 5000 nM |  |
| CC[C@@]1(c2cccc(N(C)c3cccnc3)c2)C2=CN=NC2NC2=C1C(=O)CC(C)(C)C2 (stereo not given in full) [US20250313563, Compound 874299] | 100 to 1000 nM |  |
| CC[C@]1(c2cccc(S(=O)(=O)C3CC3)c2)C2=CN=NC2NC2=C1C(=O)NC(C)(C)C2 (stereo not given in full) [US20250313563, Compound 946004] | 100 to 1000 nM |  |
| CC[C@@]1(c2cccc(N(C)c3ccncc3)c2)C2=CN=NC2NC2=C1C(=O)CC(C)(C)C2 (stereo not given in full) [US20250313563, Compound 874261] | 100 to 1000 nM |  |
| CC[C@]1(c2cccc(-c3ccncc3C)c2)C2=CN=NC2NC2=C1C(=O)NC1(CCCC1)C2 (stereo not given in full) [US20250313563, Compound 948021] | 100 to 1000 nM |  |
| CC[C@@]1(c2cccc(-c3ccnc(OC)c3)c2)C2=CN=NC2NC2=C1C(=O)CC(C)(C)C2 (stereo not given in full) [US20250313563, Compound 911989] | 1000 to 5000 nM |  |
| CC[C@@]1(c2cccc(-n3ccnc3)c2)C2=CN=NC2NC2=C1C(=O)CC(C)(C)C2 (stereo not given in full) [US20250313563, Compound 874533] | 100 to 1000 nM |  |
| CC[C@]1(c2cccc(-c3ccnn3C)c2)C2=CN=NC2NC2=C1C(=O)N[C@@]1(CCCOC1)C2 (stereo not given in full) [US20250313563, Compound 948366] | 1000 to 5000 nM |  |
| CC[C@@]1(c2cccc(-c3ccnc(C)c3)c2)C2=CN=NC2NC2=C1C(=O)N[C@]1(CCOC1)C2 (stereo not given in full) [US20250313563, Compound 948148] | 1000 to 5000 nM |  |
| CC[C@@]1(c2cccc(N(C)c3ncccn3)c2)C2=C(N=NC2)NC2=C1C(=O)C(C)(C)C2 [US20250313563, Compound 952205] | 1000 to 5000 nM |  |
| CC[C@]1(c2cccc(-c3cnn(CCOC)c3)c2)C2=CN=NC2NC2=C1C(=O)NC(C)(C)C2 (stereo not given in full) [US20250313563, Compound 949114] | 1000 to 5000 nM |  |
| CC[C@@]1(c2cccc(-c3ccnn3C)c2)C2=CN=NC2NC2=C1C(=O)CC(C)(C)[C@@H]2F (stereo not given in full) [US20250313563, Compound 957509] | 100 to 1000 nM |  |
| CC[C@]1(c2cccc(-c3cn(C)nc3C)c2)C2=CN=NC2NC2=C1C(=O)N(C)C(C)(C)C2 (stereo not given in full) [US20250313563, Compound 949008] | 1000 to 5000 nM |  |
| CC[C@]1(c2cccc(-c3ccnc(C)c3)c2)C2=C(CC(C)(C)NC2=O)NC2N=NC(C(F)(F)F)=C21 (stereo not given in full) [US20250313563, Compound 948773] | 1000 to 5000 nM |  |
| CC[C@]1(c2cccc(S(=O)(=O)C3CCCCC3)c2)C2=CN=NC2NC2=C1C(=O)CC(C)(C)C2 (stereo not given in full) [US20250313563, Compound 943547] | 1000 to 5000 nM |  |
| CC[C@]1(c2cccc(C(F)(F)F)c2)C2=CN=NC2NC2=C1C(=O)N[C@@H](C(C)(C)C)C2 (stereo not given in full) [US20250313563, Compound 945921] | 1000 to 5000 nM |  |

| SMILES | IC50 [1] | IC50 [2] |
| --- | --- | --- |
| CC[C@@]1(c2cccc(-c3cnn4c3CCCC4)c2)C2=CN=NC2NC2=C1C(=O)CC(C)(C)C2 (stereo not given in full) [US20250313563, Compound 945544] | 100 to 1000 nM |  |
| CC[C@@]1(c2cccc(C(F)(F)F)c2)C2=CN=NC2NC2=C1C(=O)C[C@@]1(CCNC1=O)C2 (stereo not given in full) [US20250313563, Compound 950331] | 100 to 1000 nM |  |
| CC[C@@]1(c2cccc(-c3cnn(C)c3)c2)C2=CN=NC2NC2=C1C(=O)CC(C)(C)[C@H]2F (stereo not given in full) [US20250313563, Compound 957510] | 1000 to 5000 nM |  |
| CC[C@]1(c2cccc(C(F)(F)F)c2)C2=CN=NC2NC2=C1C(=O)C[C@]1(CCN(C)C1=O)C2 (stereo not given in full) [US20250313563, Compound 950330] | 100 to 1000 nM |  |
| CC[C@]1(c2cccc(-c3c(F)cncc3OC)c2)C2=CN=NC2NC2=C1C(=O)NC(C)(C)C2 (stereo not given in full) [US20250313563, Compound 948145] | 100 to 1000 nM |  |
| CC[C@]1(c2cccc(-c3cnn(C)c3C(F)(F)F)c2)C2=CN=NC2NC2=C1C(=O)NC(C)(C)C2 (stereo not given in full) [US20250313563, Compound 948826] | 1000 to 5000 nM |  |
| CC[C@]1(c2cccc(-c3ccnn3C(C)C)c2)C2=CN=NC2NC2=C1C(=O)CC(C)(C)C2 (stereo not given in full) [US20250313563, Compound 946092] | 1000 to 5000 nM |  |
| CCn1nccc1-c1cccc([C@@]2(CC)C3=CN=NC3NC3=C2C(=O)CC(C)(C)C3)c1 (stereo not given in full) [US20250313563, Compound 946090] | 100 to 1000 nM |  |
| CCC1(c2cccc(OCC(F)F)c2)C2=CN=NC2NC2=C1C(=O)CC(C)(C)C2 (stereo not given) [US20250313563, Compound 948793] | < 100 nM and 100 to 1000 nM |  |
| CC[C@]1(c2cccc(-c3cnn(C4CC4(F)F)c3)c2)C2=CN=NC2NC2=C1C(=O)NC(C)(C)C2 (stereo not given in full) [US20250313563, Compound 949393] | 1000 to 5000 nM |  |
| CC[C@@]1(c2cccc(OC(C)C)c2)C2=CN=NC2NC2=C1C(=O)CC(C)(C)C2 (stereo not given in full) [US20250313563, Compound 811563] | 1000 to 5000 nM |  |
| CC[C@]1(c2cccc(Oc3ncccn3)c2)C2=CN=NC2NC2=C1C(=O)CC(C)(C)C2 (stereo not given in full) [US20250313563, Compound 947818] | 100 to 1000 nM |  |
| CC[C@@]1(c2cccc(N3CCCC3)c2)C2=C(CC(C)(C)CC2=O)NC2N=NC(C(F)(F)F)=C21 (stereo not given in full) [US20250313563, Compound 819575] | 100 to 1000 nM |  |
| CC[C@@]1(c2cccc(-c3ccncc3C(F)(F)F)c2)C2=CN=NC2NC2=C1C(=O)CC(C)(C)C2 (stereo not given in full) [US20250313563, Compound 943913] | < 100 nM |  |
| CC[C@@]1(c2cccc([C@H]3CCOC(C)(C)C3)c2)C2=CN=NC2NC2=C1C(=O)CC(C)(C)C2 (stereo not given in full) [US20250313563, Compound 912090] | 100 to 1000 nM |  |
| CC[C@]1(c2cccc(-c3ccnc(C)c3)c2)C2=C(CC(C)(C)CC2=O)NC2N=NC(C)=C21 (stereo not given in full) [US20250313563, Compound 913051] | 100 to 1000 nM |  |
| CC[C@@]1(c2cccc(Br)c2)C2=CN=NC2NC2=C1C(=O)CC(C)(C)C2 (stereo not given in full) [US20250313563, Compound 790734] | 100 to 1000 nM |  |
| CC[C@@]1(c2cccc(C(F)F)c2)C2=CN=NC2NC2=C1C(=O)CC(C)(C)C2 (stereo not given in full) [US20250313563, Compound 826716] | 100 to 1000 nM |  |
| CC[C@]1(c2cccc(-c3ccnn3C)c2)C2=CN=NC2NC2=C1C(=O)N[C@]1(CCOC1)C2 (stereo not given in full) [US20250313563, Compound 948014] | 100 to 1000 nM |  |
